Experimental data as given in article PMC3108148 (Journal of medicinal chemistry, 2011).

What was measured:
[1] = target: T1, XIAP linker-BIR2-BIR3 (Homo sapiens, UniProt P98170); test: Cell-free caspase-3/7 functional assay; details: compound 60 μM; XIAP linker-BIR2-BIR3 20 nM
[2] = test system: PARP cleavage and caspase-3 processing in MDA-MB-231 cells; test: Western blot analysis of PARP cleavage and caspase-3 processing; type: cell-based, human; details: 24 h; for concentration causing PARP cleavage / concentration causing caspase-3 processing: MDA-MB-231, Western blot; for caspase-3 processing and PARP cleavage: 30 nM, MDA-MB-231
[3] = target: cIAP1 in MDA-MB-231 cells (Homo sapiens, UniProt Q13490); details: 24 h, MDA-MB-231, Western blot
[4] = target: XIAP L-BIR2-BIR3 (residues 120–356) (Homo sapiens, UniProt P98170); details: relative to 15; cited from earlier work
[5] = target: cIAP-1 BIR3 (residues 253–363) (Homo sapiens, UniProt Q13490); details: relative to 15; cited from earlier work
[6] = target: cIAP-2 BIR3 (residues 238–349) (Homo sapiens, UniProt Q13489); details: relative to 15; cited from earlier work
[7] = test system: MDA-MB-231 xenograft; details: 5 mg/kg, mice; cited from earlier work
[8] = test system: subset of human cancer cell lines; details: cited from earlier work
[9] = target: T1, XIAP linker-BIR2-BIR3; test: Cell-free caspase-9 functional assay; type: biochemical; details: compound as high as 100 μM; XIAP 500 nM
[10] = Solubility; type: physicochemical
[11] = test system: MDA-MB-231 xenograft; details: SCID mice; 27 at 1 or 5 mg/kg i.v.; Taxotere […] i.v. days 2 and 9

Work on `CN[C@@H](C)C(=O)N[C@H]1CCCC[C@H]2CC[C@@H](C(=O)NC(c3ccccc3)c3ccccc3)N2C1=O` [Compound 15] yielded a caspase-3/7 activity restored [1] of 40%.
For `CN[C@@H](C)C(=O)N[C@H]1CCCC[C@H]2CC[C@@H](C(=O)N[C@@H](c3ccccc3)c3cn(CCCCc4ccc(CCCCn5cc([C@@H](NC(=O)[C@@H]6CC[C@@H]7CCCC[C@H](NC(=O)[C@H](C)NC)C(=O)N76)c6ccccc6)nn5)cc4)nn3)N2C1=O` [Compound 16], the “concentration causing PARP cleavage” value [2] was 3 nM, the “concentration causing caspase-3 processing” value [2] was 3 nM and the “concentration inducing clear/robust cIAP1 degradation” value [3] was 1 nM. For the same compound, the “times more potent than 15 in binding to XIAP containing both BIR2 and BIR3 domains” value [4] was over 100 times, the “times more potent than 15 in binding to cIAP1 BIR3 protein” value [5] was 10 times and the “times more potent than 15 in binding to cIAP2 BIR3 protein” value [6] was 10 times. The “antitumor effect in MDA-MB-231 xenograft model” value [7] was “tumor regression”, the “concentrations effectively inducing apoptosis and inhibiting cell growth (as low as)” value [8] was 1 to 10 nM and the “times more potent than 15 in inducing apoptosis and inhibiting cell growth” value [8] was 100 times.
For `CC(=O)N[C@@H](Cc1c[nH]c2ccccc12)C(=O)N[C@H]1CCCC[C@H]2CC[C@@H](C(=O)N[C@@H](c3ccccc3)c3cn(CCCCc4ccc(CCCCn5cc([C@@H](NC(=O)[C@@H]6CC[C@@H]7CCCC[C@H](NC(=O)[C@H](Cc8c[nH]c9ccccc89)NC(C)=O)C(=O)N76)c6ccccc6)nn5)cc4)nn3)N2C1=O` [Compound 17], the “restoration of caspase-9 activity” value [9] was “fails to restore any caspase-9 activity”.
For `CN[C@@H](C)C(=O)N[C@H]1CCCC[C@H]2CC[C@@H](C(=O)N[C@@H](c3ccccc3)c3cn(Cc4ccc(Cn5cc([C@@H](NC(=O)[C@@H]6CC[C@@H]7CCCC[C@H](NC(=O)[C@H](C)NC)C(=O)N76)c6ccccc6)nn5)cc4)nn3)N2C1=O` [Compound 18, (S,3S,3′S,6S,6′S,10aS,10a′S)-N,N′-((1S,1′S)-(1,1′-(1,4-phenylenebis(methylene))bis(1H-1,2,3-triazole-4,1-diyl))bis(phenylmethylene))bis(6-((S)-2-(methylamino)propanamido)-5-oxodecahydropyrrolo[1,2-a]azocine-3-carboxamide)], the “caspase-3 processing and PARP cleavage” value [2] was “fail to induce caspase-3 processing and PARP cleavage”.
With `CN[C@@H](C)C(=O)N[C@H]1CCCC[C@H]2CC[C@@H](C(=O)N[C@@H](c3ccccc3)c3cn(CCc4ccc(CCn5cc([C@@H](NC(=O)[C@@H]6CC[C@@H]7CCCC[C@H](NC(=O)[C@H](C)NC)C(=O)N76)c6ccccc6)nn5)cc4)nn3)N2C1=O` [Compound 19, (S,3S,3′S,6S,6′S,10aS,10a′S)-N,N′-((1S,1′S)-(1,1′-(1,4-phenylenebis(ethane-2,1-diyl))bis(1H-1,2,3-triazole-4,1-diyl))bis(phenylmethylene))bis(6-((S)-2-(methylamino)propanamido)-5-oxodecahydropyrrolo[1,2-a]azocine-3-carboxamide)] the “caspase-3 processing and PARP cleavage” value [2] was “fail to induce caspase-3 processing and PARP cleavage”.
For `CN[C@@H](C)C(=O)N[C@H]1CCCC[C@H]2CC[C@@H](C(=O)N[C@@H](c3ccccc3)c3cn(CCCc4ccc(CCCn5cc([C@@H](NC(=O)[C@@H]6CC[C@@H]7CCCC[C@H](NC(=O)[C@H](C)NC)C(=O)N76)c6ccccc6)nn5)cc4)nn3)N2C1=O` [Compound 20, (S,3S,3′S,6S,6′S,10aS,10a′S)-N,N′-((1S,1′S)-(1,1′-(1,4-phenylenebis(propane-3,1-diyl))bis(1H-1,2,3-triazole-4,1-diyl))bis(phenylmethylene))bis(6-((S)-2-(methylamino)propanamido)-5-oxodecahydropyrrolo[1,2-a]azocine-3-carboxamide)], the “concentration causing PARP cleavage” value [2] was 3 nM and the “concentration causing caspase-3 processing” value [2] was 10 nM.
In the case of `CN[C@@H](C)C(=O)N[C@H]1CCCC[C@H]2CC[C@@H](C(=O)N[C@@H](c3ccccc3)c3cn(CCCCCCc4ccc(CCCCCCn5cc([C@@H](NC(=O)[C@@H]6CC[C@@H]7CCCC[C@H](NC(=O)[C@H](C)NC)C(=O)N76)c6ccccc6)nn5)cc4)nn3)N2C1=O` [Compound 21, (S,3S,3′S,6S,6′S,10aS,10a′S)-N,N′-((1S,1′S)-(1,1′-(1,4-phenylenebis(hexane-6,1-diyl))bis(1H-1,2,3-triazole-4,1-diyl))bis(phenylmethylene))bis(6-((S)-2-(methylamino)propanamido)-5-oxodecahydropyrrolo[1,2-a]azocine-3-carboxamide)], the “concentration causing PARP cleavage” value [2] is reported as 3 nM and the “concentration causing caspase-3 processing” value [2] is reported as 3 nM.
For `CN[C@@H](C)C(=O)N[C@H]1CCCC[C@H]2CC[C@@H](C(=O)N[C@@H](c3ccccc3)c3cn(CCCCCOCCCCCn4cc([C@@H](NC(=O)[C@@H]5CC[C@@H]6CCCC[C@H](NC(=O)[C@H](C)NC)C(=O)N65)c5ccccc5)nn4)nn3)N2C1=O` [Compound 27, (S,3S,3′S,6S,6′S,10aS,10a′S)-N,N′-((1S,1′S)-(1,1′-(oxybis(pentane-5,1-diyl))bis(1H-1,2,3-triazole-4,1-diyl))bis(phenylmethylene))bis(6-((S)-2-(methylamino)propanamido)-5-oxodecahydropyrrolo[1,2-a]azocine-3-carboxamide)], the solubility [10] was “excellent solubility” and the “weight loss / signs of toxicity” value [11] was “no signs of toxicity”.
